Reference: patent publication US9833497B2, “Human originated EGF domain proteins and use of the same” (CHENGDU SOURCEBIO LIMITED-LIABILITY COMPANY, priority 2013, dated 2017)

Experiments:
Type in all cases: cell-based
[1] = system: Enterobacter cloacae; test: MIC against Gram-negative bacteria: Enterobacter cloacae
In short: (§1)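 Antibacterial activity of purified human EGF domain proteins: two-fold concentration series, triplicate wells, LB broth, 5×10^5 CFU/mL bacteria, 37° C shaking incubation. The lowest concentration without growth defines the MIC.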

[2] = system: Pseudomonas aeruginosa; test: MIC against Gram-negative bacteria: Pseudomonas aeruginosa
In short: as §1

[3] = system: E. coli DH5α; test: Antibacterial activity: MIC and growth curve against E. coli DH5α in 96-well plate; details: minimal inhibitory concentration against E. coli DH5α; 96-well plate, 5×10^5 CFU/mL, 37° C., judged after 8 h
In short: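 Log-phase bacteria (OD600 ~0.5) resuspended in LB at 5×10^5 CFU/mL, exposed to recombinant protein at 50, 25, 12.5 μg/mL final in triplicate, 37 °C shaking at 175 rpm. OD600 read every 30 min; MIC is lowest concentration showing no growth.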

[4] = system: Proteus mirabilis; test: MIC against Gram-negative bacteria: Proteus mirabilis
In short: as §1

[5] = system: Aeromonas hydrophila; test: MIC against Gram-negative bacteria: Aeromonas hydrophila
In short: as §1

[6] = system: Proteus vulgaris; test: MIC against Gram-negative bacteria: Proteus vulgaris
In short: as §1

[7] = system: Moraxella catarrhalis; test: MIC against Gram-negative bacteria: Moraxella catarrhalis
In short: as §1

[8] = system: Serratia marcescens; test: MIC against Gram-negative bacteria: Serratia marcescens
In short: as §1

[9] = system: Klebsiella pneumonia; test: MIC against Gram-negative bacteria: Klebsiella pneumonia
In short: as §1

[10] = system: Citrobacter diversus; test: MIC against Gram-negative bacteria: Citrobacter diversus
In short: as §1

[11] = system: E. coli BL21; test: MIC against Gram-negative bacteria: E. coli BL21
In short: as §1

[12] = 10 h cultivation at 37° C., 5×10^5 CFU/mL, two-fold serial dilution
[13] = 96-well plate, 5×10^5 CFU/mL, 37° C., 10 h

Row | Substance | MIC [3] [µg/mL] | MIC E. cloacae [1, 12] [µg/mL] | MIC P. aeruginosa [2, 12] [µg/mL] | MIC P. mirabilis [4, 12] [µg/mL] | MIC A. hydrophila [5, 12] [µg/mL] | MIC P. vulgaris [6, 12] [µg/mL] | MIC M. catarrhalis [7, 12] [µg/mL] | MIC S. marcescens [8, 12] [µg/mL] | MIC K. pneumonia [9, 12] [µg/mL] | MIC C. diversus [10, 12] [µg/mL] | MIC E. coli BL21 [11, 12] [µg/mL] | MIC E. cloacae [1, 13] [µg/mL] | MIC P. aeruginosa [2, 13] [µg/mL] | MIC P. mirabilis [4, 13] [µg/mL] | MIC A. hydrophila [5, 13] [µg/mL] | MIC P. vulgaris [6, 13] [µg/mL] | MIC M. catarrhalis [7, 13] [µg/mL] | MIC S. marcescens [8, 13] [µg/mL] | MIC K. pneumonia [9, 13] [µg/mL] | MIC C. diversus [10, 13] [µg/mL] | further results
1 | PRT905 (DVNECDSQPCLHGGTCQDGCGSYRCTCPQGYTGPNCQ; listed as Homo sapiens) | 25 |  |  |  |  |  |  |  |  |  |  |  |  |  |  |  |  |  |  |  | MIC ([1]; E. cloacae, 10 h cultivation at 37° C.): 50 µg/mL; MIC ([2]; P. aeruginosa, 10 h cultivation at 37° C.): 12.5 µg/mL; MIC ([4]; P. mirabilis, 10 h cultivation at 37° C.): 12.5 µg/mL; MIC ([5]; A. hydrophila, 10 h cultivation at 37° C.): 12.5 µg/mL; MIC ([6]; P. vulgaris, 10 h cultivation at 37° C.): 50 µg/mL; MIC ([7]; M. catarrhalis, 10 h cultivation at 37° C.): 25 µg/mL; MIC ([8]; S. marcescens, 10 h cultivation at 37° C.): 12.5 µg/mL; MIC ([9]; K. pneumonia, 10 h cultivation at 37° C.): 25 µg/mL; MIC ([10]; C. diversus, 10 h cultivation at 37° C.): 50 µg/mL; MIC ([11]; E. coli BL21, 10 h cultivation at 37° C.): 50 µg/mL
2 | PRT108 (VKDHCSKHSPCQKGGTCVNMPSGPHCLCPQHLTGNHCQ; listed as Homo sapiens) | 50 |  |  |  |  |  |  |  |  |  |  |  |  |  |  |  |  |  |  |  | MIC (μg/mL) E. cloacae ([1]; Enterobacter cloacae, 96-well plate, 5×10^5 CFU/mL, 37° C., 10 h): 25 µg/mL; MIC (μg/mL) P. aeruginosa ([2]; Pseudomonas aeruginosa, 96-well plate, 5×10^5 CFU/mL, 37° C., 10 h): 25 µg/mL; MIC (μg/mL) P. mirabilis ([4]; Proteus mirabilis, 96-well plate, 5×10^5 CFU/mL, 37° C., 10 h): 12.5 µg/mL; MIC (μg/mL) A. hydrophila ([5]; Aeromonas hydrophila, 96-well plate, 5×10^5 CFU/mL, 37° C., 10 h): 12.5 µg/mL; MIC (μg/mL) P. vulgaris ([6]; Proteus vulgaris, 96-well plate, 5×10^5 CFU/mL, 37° C., 10 h): 12.5 µg/mL; MIC (μg/mL) M. catarrhalis ([7]; Moraxella catarrhalis, 96-well plate, 5×10^5 CFU/mL, 37° C., 10 h): 50 µg/mL; MIC (μg/mL) S. marcescens ([8]; Serratia marcescens, 96-well plate, 5×10^5 CFU/mL, 37° C., 10 h): 12.5 µg/mL; MIC (μg/mL) K. pneumonia ([9]; Klebsiella pneumonia, 96-well plate, 5×10^5 CFU/mL, 37° C., 10 h): 50 µg/mL; MIC (μg/mL) C. diversus ([10]; Citrobacter diversus, 96-well plate, 5×10^5 CFU/mL, 37° C., 10 h): 25 µg/mL; MIC (μg/mL) E. coli BL21 ([11]; E. coli BL21, 96-well plate, 5×10^5 CFU/mL, 37° C., 10 h): 12.5 µg/mL
3 | PRT1166 (DTPEGVRYISSNVCGPHGKCKSQSGGKFTCDCNKGFTGTYCH; listed as Homo sapiens) | 50 | 25 | 25 | 12.5 | 25 | 50 | 50 | 12.5 | 50 | 12.5 | 12.5 |  |  |  |  |  |  |  |  |  | 
4 | PRT714 (HINECLSKKVSGCSQDCQDLPVSYKCKCWPGFQLKDDGKTCV; listed as Homo sapiens) | 12.5 |  |  |  |  |  |  |  |  |  |  | 12.5 | 12.5 | 12.5 | 50 | 50 | 50 | 12.5 | 12.5 | 12.5 | MIC E. coli BL21 [11, 13]: 25 µg/mL
5 | PRT771 (VQDLCSKTTCKNDGVCTVRDGKAECRCQSGEDWWYMGERCE; listed as Homo sapiens) | 25 |  |  |  |  |  |  |  |  |  |  |  |  |  |  |  |  |  |  |  | MIC (μg/mL) E. cloacae ([1]; E. cloacae, 10 h cultivation at 37° C., 5×10^5 CFU/mL): 50 µg/mL; MIC (μg/mL) P. aeruginosa ([2]; P. aeruginosa, 10 h cultivation at 37° C., 5×10^5 CFU/mL): 50 µg/mL; MIC (μg/mL) P. mirabilis ([4]; P. mirabilis, 10 h cultivation at 37° C., 5×10^5 CFU/mL): 50 µg/mL; MIC (μg/mL) A. hydrophila ([5]; A. hydrophila, 10 h cultivation at 37° C., 5×10^5 CFU/mL): 12.5 µg/mL; MIC (μg/mL) P. vulgaris ([6]; P. vulgaris, 10 h cultivation at 37° C., 5×10^5 CFU/mL): 12.5 µg/mL; MIC (μg/mL) M. catarrhalis ([7]; M. catarrhalis, 10 h cultivation at 37° C., 5×10^5 CFU/mL): 12.5 µg/mL; MIC (μg/mL) S. marcescens ([8]; S. marcescens, 10 h cultivation at 37° C., 5×10^5 CFU/mL): 50 µg/mL; MIC (μg/mL) K. pneumonia ([9]; K. pneumonia, 10 h cultivation at 37° C., 5×10^5 CFU/mL): 12.5 µg/mL; MIC (μg/mL) C. diversus ([10]; C. diversus, 10 h cultivation at 37° C., 5×10^5 CFU/mL): 50 µg/mL; MIC (μg/mL) E. coli BL21 ([11]; E. coli BL21, 10 h cultivation at 37° C., 5×10^5 CFU/mL): 12.5 µg/mL
6 | PRT1056 (DQDDCAPVGCSMYARCISEGEDATCQCLKGFAGDGKLCS; listed as Homo sapiens) | 50 | 50 | 12.5 | 50 | 12.5 | 12.5 | 12.5 | 25 | 25 | 50 | 25 |  |  |  |  |  |  |  |  |  | 
7 | PRT670 (DVDECASRASCPTGLCLNTEGSFACSACENGYWVNEDGTACE; listed as Homo sapiens) | 25 |  |  |  |  |  |  |  |  |  |  | 12.5 | 25 | 25 | 12.5 | 12.5 | 12.5 | 25 | 12.5 | 25 | MIC E. coli BL21 [11, 13]: 12.5 µg/mL
8 | PRT1177 (DANECEAKPCVNAKSCKNLIASYYCDCLPGWMGQNCD; listed as Homo sapiens) | 50 | 50 | 50 | 50 | 12.5 | 12.5 | 12.5 | 25 | 12.5 | 50 | 12.5 |  |  |  |  |  |  |  |  |  | 
9 | PRT622 (CNCNPMGSEPVGCRSDGTCVCKPGFGGPNC; listed as Homo sapiens) | 25 |  |  |  |  |  |  |  |  |  |  | 25 | 25 | 50 | 12.5 | 12.5 | 12.5 | 12.5 | 50 | 50 | MIC E. coli BL21 [11, 13]: 50 µg/mL
10 | PRT1434 (DVDECKYHPCYPGVHCINLSPGFRCDACPVGFTGPMVQ; listed as Homo sapiens) | 25 |  |  |  |  |  |  |  |  |  |  |  |  |  |  |  |  |  |  |  | MIC against E. cloacae ([1]; Enterobacter cloacae, 5×10^5 CFU/mL, 10 h cultivation at 37° C.): 25 µg/mL; MIC against P. aeruginosa ([2]; Pseudomonas aeruginosa, 5×10^5 CFU/mL, 10 h cultivation at 37° C.): 25 µg/mL; MIC against P. mirabilis ([4]; Proteus mirabilis, 5×10^5 CFU/mL, 10 h cultivation at 37° C.): 25 µg/mL; MIC against A. hydrophila ([5]; Aeromonas hydrophila, 5×10^5 CFU/mL, 10 h cultivation at 37° C.): 12.5 µg/mL; MIC against P. vulgaris ([6]; Proteus vulgaris, 5×10^5 CFU/mL, 10 h cultivation at 37° C.): 12.5 µg/mL; MIC against M. catarrhalis ([7]; Moraxella catarrhalis, 5×10^5 CFU/mL, 10 h cultivation at 37° C.): 12.5 µg/mL; MIC against S. marcescens ([8]; Serratia marcescens, 5×10^5 CFU/mL, 10 h cultivation at 37° C.): 12.5 µg/mL; MIC against K. pneumonia ([9]; Klebsiella pneumonia, 5×10^5 CFU/mL, 10 h cultivation at 37° C.): 100 µg/mL; MIC against C. diversus ([10]; Citrobacter diversus, 5×10^5 CFU/mL, 10 h cultivation at 37° C.): 25 µg/mL; MIC against E. coli BL21 ([11]; E. coli BL21, 5×10^5 CFU/mL, 10 h cultivation at 37° C.): 12.5 µg/mL
